We go through two compounds from patent US20040131701A1, “Method to treat infectious diseases and/or to enhance antimicrobial efficacy of drugs” (Virocell Inc., priority 2000, published 2004).

For series [1], the system named is recombinant luciferase-encoding virions (NL4-3 backbone) pseudotyped with macrophage-tropic ADA envelope. In words: Infection of primary human MDM with luciferase-encoding virions, ADA envelope. The format is cell-based, HIV-1. The settings on record: MDM, 10 μM bpV[pic] or 5 μM bpV[phen], pretreatment 5 to 120 min, 48 h. An excerpt:
(§1) Fully infectious viral entities were generated by calcium phosphate transfection of 293T with pNL4-3 vector (T-tropic virions) as described below. Recombinant luciferase-encoding virus particles pseudotyped with the appropriate Env proteins have been used in our series of investigations. […] This test is based on the molecular construct pNL4-3-Luc-E-R+, a vector that carries the gene for firefly luciferase inserted into the nef gene of the pNL4-3 provirus and contains also a frameshift at the 5′ end of env (nt 5950) that prevents expression of the envelope glycoproteins. Progeny viruses were generated by cotransfecting 293T cells with pNL4-3-Luc-E-R+ and a plasmid DNA encoding for the appropriate envelope glycoproteins (T or macrophage-tropic). Briefly, a typical transfection experiment was performed as follow. In brief, 293T cells were plated 24 h before transfection at a concentration of 5×10^5 cells per 3 ml of DMEM into each well of 6-well plates. All solutions were brought to room temperature before use. Immediately before transfection, DNA was added to 25 μl of 2.5M CaCl2 and the volume was completed to 250 μl with distilled water. This solution was then added drop by drop to 250 μl of 2×HBS solution (280 mM NaCl, 50 mM HEPES, 1.5 mM Na2HPO4, pH 7.05) and the resulting mixture was stored at room temperature for 5 min. This DNA-HBS mixture was finally added drop by drop to plated 293T cells before incubation at 37° C. under a 5% CO2atmosphere. At 16 h after transfection, cells were washed twice with 3 ml of PBS and were incubated for an additional 24 h with 3 ml of DMEM supplemented with 10% FBS. Virion-containing supernatants were filtered through a 0.45-μm cellulose acetate membrane (Millipore, Mass.), aliquoted in 200 μl fractions, and were finally frozen at −85° C. until needed. Virus stocks were normalized for virion content using a commercial assay for the viral major core protein p24 (Organon Teknika, Durham, N.C.).
(§2) In brief, 100 μl of cell-free supernatant were discarded from each well and 25 μl of cell culture lysis buffer 5×(125 mM Tris phosphate [pH 7.8], 10 mM DTT, 5% Triton X-100, and 50% glycerol) were added to the wells before incubation at room temperature for 30 min. An aliquot of cell lysate (20 μl) was mixed with 100 μl luciferase assay buffer (20 mM tricine, 1.07 mM (MgCO3)4. Mg(OH)2.5H2O, 2.67 mM MgSO4, 0.1 mM EDTA, 270 μM coenzyme A, 470 μM luciferin, 530 μM ATP, and 33.3 mM DTT). Luciferase activity was monitored using a microplate luminometer (MLX; Dynex Technologies, Chantilly, Va.).

Series [2] deals with macrophage-tropic recombinant luciferase-encoding HIV-1 particles. In words: Infection of PM1 cells with luciferase reporter virus, macrophage-tropic envelope. In kind it is cell-based. Conditions: 5 min pretreatment, 72 h. An excerpt: (§3) Fully infectious viral entities were generated by calcium phosphate transfection of 293T with pNL4-3 vector (T-tropic virions) as described below. Recombinant luciferase-encoding virus particles pseudotyped with the appropriate Env proteins have been used in our series of investigations. Such a system provides a highly sensitive and reproducible assay to monitor single-cycle viral infection events. This test is based on the molecular construct pNL4-3-Luc-E-R+, a vector that carries the gene for firefly luciferase inserted into the nef gene of the pNL4-3 provirus and contains also a frameshift at the 5′ end of env (nt 5950) that prevents expression of the envelope glycoproteins. Progeny viruses were generated by cotransfecting 293T cells with pNL4-3-Luc-E-R+ and a plasmid DNA encoding for the appropriate envelope glycoproteins (T or macrophage-tropic). Briefly, a typical transfection experiment was performed as follow. […]
(§4) In brief, 100 μl of cell-free supernatant were discarded from each well and 25 μl of cell culture lysis buffer 5×(125 mM Tris phosphate [pH 7.8], 10 mM DTT, 5% Triton X-100, and 50% glycerol) were added to the wells before incubation at room temperature for 30 min. […] Luciferase activity was monitored using a microplate luminometer (MLX; Dynex Technologies, Chantilly, Va.). […]

The subject of series [3] is primary human MDM. Description: MTT toxicity in primary human MDM. The settings on record: 48 h, 10 and 20 μM. The format is cell-based. The text has this: Target cells used in the present invention include human CD4-expressing T lymphoid Sup-T1, PM1, and Jurkat cells. Moreover, primary human monocyte-derived macrophages (MDM) and peripheral blood mononuclear cells (PBMC′) were also used in the current work, MDM were obtained using a standard technique. In brief, the mononuclear cell fraction was isolated by Ficoll-Hypaque centrifugation. Peripheral blood mononuclear cells were suspended in seeding medium (RPMI 1640+20% fetal calf serum+10% human serum type AB) in tissue culture 48-well plates (3×10^6 cells/ml and 500 μl per well). Five days after the initiation of the cultures, nonadherent cells were removed by rinsing the cultures three times with phosphate buffered saline. Next, such adherent cells were maintained in RPMI 1640 medium supplemented with 20% fetal calf serum.
Putative toxicity of bpV[pic] and bpV[phen] molecules was next assessed by adding the tetrazolium salt MTT to primary human MDM that were cultured for 48 h under the constant pressure of the indicated concentrations of bpV compounds.

In series [4] the test system is T-tropic recombinant luciferase-encoding HIV-1 particles. In words: Infection of PM1 cells with luciferase reporter virus, T-tropic envelope. The format is cell-based. The settings on record: 5 min pretreatment, 72 h.
Text: as §3, §4
(In a reporter assay the amount or activity of a reporter protein is the signal.)

The subject of series [5] is T-tropic strain HIV-1NL4-3. Description: Replication of HIV-1 in Sup-T1 cells (p24 in culture supernatants). The format is cell-based. Conditions: 10 days, all three tested concentrations.
Text: as §3, with “glycoproteins.” for “glycoproteins. Progeny viruses were generated by cotransfecting 293T cells with pNL4-3-Luc-E-R+ and a plasmid DNA encoding for the appropriate envelope glycoproteins (T or macrophage-tropic). Briefly, a typical transfection experiment was performed as follow.”
Sup-T1 cells were seeded at a density of 10^5 cells per well (100 μl) in 96-well flat-bottom, plates. […] Cells were incubated for 10 days and kinetics of viral infection was assessed by measuring in cell-free culture supernatants the major core viral p24 protein with the use of a commercial enzymatic assay (Organon Teknika). Putative toxicity of bpV molecules was assessed by adding the tetrazolium salt MTT to Sup-T1 cells that were cultured for 10 days under the constant pressure of the indicated concentrations of bpV[pic] and bpV[phen] molecules.

Series [6] has as its system recombinant luciferase-encoding virions (NL4-3 backbone) pseudotyped with T-tropic HXB-2D envelope. In words: Infection of Jurkat cells with luciferase-encoding virions, HXB-2D envelope. The format is cell-based, HIV-1. Conditions: antiviral agent alone 0.05 μM, 72 h.
Text: as §1, §2
We attempted to define any putative interaction (additive, synergistic or antagonistic) between bpV compounds and currently approved anti-HIV-1 agents (AZT/Zidovudine, 3TC/Epivir/Lamivudine). […]

For the compound `O.O.O.OO.OO.[K+].[OH-].[V].c1cnc2c(c1)ccc1cccnc12` [bpV[phen], K[VO(O2)2phen]0.3H2O], the “anti-HIV-1 efficacy (luciferase activity)” value in series [1] is recorded as “maintained over several pretreatment periods”. Besides, the “infection (luciferase activity)” value in series [2] and in series [4] was “dose-dependent inhibition of infection” in each case. Moreover, the “toxicity (MTT)” value in series [3] is “detectable toxic effect”. Moreover, in series [5], the “HIV-1 production (p24)” value is on record as “dramatic decrease of HIV-1 production”.
As for `Cc1cn([C@H]2C[C@H](N=[N+]=[N-])[C@@H](CO)O2)c(=O)[nH]c1=O` [AZT, Zidovudine, reference compound], the “virus infection (luciferase activity)” value in series [6] is reported as “decreased”.
